Laboratory results: article PMC6934184, “Selective DNA-PKcs inhibition extends the therapeutic index of localized radiotherapy and chemotherapy” (The Journal of Clinical Investigation, 2019)

Biological target: T1, PIK3CB/PIK3R1 (p110β/p85α) (Homo sapiens, UniProt P42338)
T1 construct: purchased Thermo Fisher Scientific (Life Technologies) SelectScreen
Experiment: SelectScreen Adapta
Type: biochemical
Method in brief: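 NU5455 was profiled across the SelectScreen Broad panel of kinase activity and binding assays. Z'LYTE reactions such as CSF1R ran at apparent Km ATP, while the Adapta CAMK1 assay used ATP listed as 10. Values are given as percent.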

T1 sequence (P42338 whole entry): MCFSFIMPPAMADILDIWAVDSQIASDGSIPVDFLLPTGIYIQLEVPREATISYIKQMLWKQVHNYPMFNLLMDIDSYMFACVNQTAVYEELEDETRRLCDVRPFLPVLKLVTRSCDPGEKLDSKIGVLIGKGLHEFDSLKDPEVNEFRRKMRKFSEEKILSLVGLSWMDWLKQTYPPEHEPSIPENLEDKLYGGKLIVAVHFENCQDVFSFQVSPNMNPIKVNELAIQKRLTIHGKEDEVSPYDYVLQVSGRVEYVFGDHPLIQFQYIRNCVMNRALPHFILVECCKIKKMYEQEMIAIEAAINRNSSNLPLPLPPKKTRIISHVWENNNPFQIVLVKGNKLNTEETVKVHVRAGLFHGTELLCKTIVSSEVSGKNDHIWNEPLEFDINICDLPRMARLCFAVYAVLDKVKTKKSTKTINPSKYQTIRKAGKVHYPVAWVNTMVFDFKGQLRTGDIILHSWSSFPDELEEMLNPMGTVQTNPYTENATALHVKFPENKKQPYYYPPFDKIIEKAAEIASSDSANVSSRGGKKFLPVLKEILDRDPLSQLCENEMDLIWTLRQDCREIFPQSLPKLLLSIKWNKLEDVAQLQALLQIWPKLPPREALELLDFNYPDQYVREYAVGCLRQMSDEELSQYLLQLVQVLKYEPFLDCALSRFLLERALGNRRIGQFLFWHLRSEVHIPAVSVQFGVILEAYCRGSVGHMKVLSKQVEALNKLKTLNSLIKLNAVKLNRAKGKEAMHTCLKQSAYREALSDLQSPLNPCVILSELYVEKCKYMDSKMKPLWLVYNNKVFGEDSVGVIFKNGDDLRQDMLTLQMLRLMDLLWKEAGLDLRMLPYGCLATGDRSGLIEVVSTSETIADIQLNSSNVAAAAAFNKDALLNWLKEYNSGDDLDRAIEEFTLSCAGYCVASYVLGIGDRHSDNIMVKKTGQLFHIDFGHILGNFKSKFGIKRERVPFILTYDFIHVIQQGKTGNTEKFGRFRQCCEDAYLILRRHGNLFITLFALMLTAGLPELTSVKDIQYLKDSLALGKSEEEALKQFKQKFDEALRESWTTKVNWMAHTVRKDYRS
T1 sequence (P27986 whole entry partner): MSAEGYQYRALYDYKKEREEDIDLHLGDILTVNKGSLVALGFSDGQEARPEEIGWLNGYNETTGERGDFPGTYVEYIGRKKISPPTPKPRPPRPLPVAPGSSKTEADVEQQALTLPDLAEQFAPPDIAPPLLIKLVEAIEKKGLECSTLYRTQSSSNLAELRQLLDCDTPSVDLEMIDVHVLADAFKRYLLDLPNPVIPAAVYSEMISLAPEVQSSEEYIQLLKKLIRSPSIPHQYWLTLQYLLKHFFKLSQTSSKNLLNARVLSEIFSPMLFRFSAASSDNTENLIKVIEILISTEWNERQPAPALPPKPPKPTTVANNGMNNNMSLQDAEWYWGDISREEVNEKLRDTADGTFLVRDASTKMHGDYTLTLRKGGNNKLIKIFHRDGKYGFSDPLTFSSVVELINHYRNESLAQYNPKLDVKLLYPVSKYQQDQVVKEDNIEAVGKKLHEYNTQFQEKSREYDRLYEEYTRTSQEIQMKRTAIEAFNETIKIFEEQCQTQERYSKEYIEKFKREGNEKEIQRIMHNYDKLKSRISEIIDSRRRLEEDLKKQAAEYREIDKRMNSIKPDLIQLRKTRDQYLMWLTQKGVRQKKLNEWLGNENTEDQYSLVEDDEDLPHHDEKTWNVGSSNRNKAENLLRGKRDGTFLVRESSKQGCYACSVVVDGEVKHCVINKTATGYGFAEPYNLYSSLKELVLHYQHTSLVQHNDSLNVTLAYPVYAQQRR

Structure (SMILES): CN(C(=O)CN1CCOCC1)c1ccc2sc3c(-c4cccc5c(=O)cc(N6CC7CCC(C6)O7)oc45)cccc3c2c1 [NU5455]
- inhibition at 1 µM: -3.8%
